What all share (format): biochemical
Experiment [1] deals with T1, JAK1 (Homo sapiens, UniProt P23458).
T1 construct: purchased Invitrogen
Nature of the experiment: JAK1 enzyme inhibition test (LANCE method). To be noted: 1 μM test compound; for inhibition at 1 µM: read-out: JAK1 enzyme inhibitory activity (%, 1 μM). The method in brief:
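Inhibition expressed against no-enzyme wells (100% inhibition), from time-resolved fluorescence at 665 nm after Eu-anti-phosphotyrosine antibody/EDTA detection. Kinase reaction ran 1 h at room temperature, pH 7.5 HEPES buffer, ULight-JAK1 substrate and ATP diluted to 300 nM and 150 μM before addition.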
On the technique in general: In TR-FRET formats the signal depends on donor and acceptor labels being close together.

Experiment [2] concerns the target T2, JAK2 (Homo sapiens, UniProt O60674).
T2 construct: purchased Invitrogen
Nature of the experiment: JAK2 enzyme inhibition test (LANCE method). The conditions noted are these: 1 μM test compound; for inhibition at 1 µM: read-out: JAK2 enzyme inhibitory activity (%, 1 μM). In outline:
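TR-FRET (LANCE) read-out, ex 340/em 665 nm with 100 μs delay, after 1 hr room-temperature detection with europium anti-phosphotyrosine antibody and 20 mM EDTA. The preceding 1 hr kinase reaction combined JAK2, ULight-JAK1 substrate and ATP, added as 6 ng/mL, 300 nM and 45 μM solutions; enzyme-free wells defined 100% inhibition.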

Experiment [3] deals with T3, JAK3 (Homo sapiens, UniProt P52333).
T3 construct: purchased Invitrogen
T3 sequence (P52333 1-1124): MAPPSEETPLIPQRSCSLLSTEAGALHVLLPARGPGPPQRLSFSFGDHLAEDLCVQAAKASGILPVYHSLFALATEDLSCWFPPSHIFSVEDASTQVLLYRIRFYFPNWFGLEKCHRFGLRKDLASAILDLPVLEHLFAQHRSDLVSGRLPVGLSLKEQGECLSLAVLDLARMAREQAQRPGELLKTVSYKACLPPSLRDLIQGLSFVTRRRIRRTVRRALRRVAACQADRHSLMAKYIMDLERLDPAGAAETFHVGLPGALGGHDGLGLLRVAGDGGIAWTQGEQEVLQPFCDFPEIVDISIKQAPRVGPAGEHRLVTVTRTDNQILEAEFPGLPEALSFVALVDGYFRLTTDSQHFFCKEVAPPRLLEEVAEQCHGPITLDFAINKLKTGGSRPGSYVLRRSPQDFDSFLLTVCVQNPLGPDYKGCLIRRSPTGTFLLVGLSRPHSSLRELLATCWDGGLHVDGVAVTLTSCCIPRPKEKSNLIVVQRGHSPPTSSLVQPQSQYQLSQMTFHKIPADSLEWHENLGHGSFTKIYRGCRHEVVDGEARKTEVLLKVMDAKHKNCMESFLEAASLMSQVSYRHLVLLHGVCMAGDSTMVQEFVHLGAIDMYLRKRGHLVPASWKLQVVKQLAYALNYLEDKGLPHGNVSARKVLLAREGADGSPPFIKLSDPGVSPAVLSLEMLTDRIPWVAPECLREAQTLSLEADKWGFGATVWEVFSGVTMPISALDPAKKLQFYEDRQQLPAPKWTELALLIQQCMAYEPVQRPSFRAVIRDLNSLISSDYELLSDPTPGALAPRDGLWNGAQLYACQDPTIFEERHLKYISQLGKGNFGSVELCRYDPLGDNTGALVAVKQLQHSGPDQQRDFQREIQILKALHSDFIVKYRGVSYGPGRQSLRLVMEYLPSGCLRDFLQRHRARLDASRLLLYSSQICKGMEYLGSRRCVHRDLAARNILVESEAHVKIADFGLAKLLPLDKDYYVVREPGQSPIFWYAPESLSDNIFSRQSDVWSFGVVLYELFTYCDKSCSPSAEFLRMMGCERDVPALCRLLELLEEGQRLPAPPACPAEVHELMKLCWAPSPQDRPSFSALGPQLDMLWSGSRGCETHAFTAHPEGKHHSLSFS
Description: JAK3 enzyme inhibition test (LANCE method). The conditions noted are these: 1 μM test compound; for inhibition at 1 µM: read-out: JAK3 enzyme inhibitory activity (%, 1 μM). The method in brief:
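TR-FRET (LANCE) read: 1 h room-temperature reaction, EDTA quench, Eu-anti-phosphotyrosine antibody, emission 665 nm after 340 nm excitation. Added solutions held 12 ng/mL JAK3, 300 nM ULight-JAK1 substrate and 15 μM ATP (pH 7.5 HEPES). Activity expressed against no-enzyme wells defined as full inhibition.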

Experiment [4] addresses T4, TYK2 (Homo sapiens, UniProt P29597).
T4 construct: purchased Invitrogen
Nature of the experiment: TYK2 enzyme inhibition test (LANCE method). The conditions noted are these: 1 μM test compound; for inhibition at 1 µM: read-out: TYK2 enzyme inhibitory activity (%, 1 μM). The method in brief:
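TR-FRET (LANCE) readout: after 1 h room-temperature kinase reaction, EDTA plus 4 nM Eu-labelled anti-phosphotyrosine antibody added, signal at 665 nm (340 nm excitation). Reaction combined TYK2, ULight-JAK1 substrate and ATP, prepared at 375 ng/mL, 300 nM and 30 μM before addition, in pH 7.5 HEPES/MgCl2 buffer; enzyme-free wells define full inhibition.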

Each structure is given as a SMILES string.

T1 sequence (P23458 whole entry): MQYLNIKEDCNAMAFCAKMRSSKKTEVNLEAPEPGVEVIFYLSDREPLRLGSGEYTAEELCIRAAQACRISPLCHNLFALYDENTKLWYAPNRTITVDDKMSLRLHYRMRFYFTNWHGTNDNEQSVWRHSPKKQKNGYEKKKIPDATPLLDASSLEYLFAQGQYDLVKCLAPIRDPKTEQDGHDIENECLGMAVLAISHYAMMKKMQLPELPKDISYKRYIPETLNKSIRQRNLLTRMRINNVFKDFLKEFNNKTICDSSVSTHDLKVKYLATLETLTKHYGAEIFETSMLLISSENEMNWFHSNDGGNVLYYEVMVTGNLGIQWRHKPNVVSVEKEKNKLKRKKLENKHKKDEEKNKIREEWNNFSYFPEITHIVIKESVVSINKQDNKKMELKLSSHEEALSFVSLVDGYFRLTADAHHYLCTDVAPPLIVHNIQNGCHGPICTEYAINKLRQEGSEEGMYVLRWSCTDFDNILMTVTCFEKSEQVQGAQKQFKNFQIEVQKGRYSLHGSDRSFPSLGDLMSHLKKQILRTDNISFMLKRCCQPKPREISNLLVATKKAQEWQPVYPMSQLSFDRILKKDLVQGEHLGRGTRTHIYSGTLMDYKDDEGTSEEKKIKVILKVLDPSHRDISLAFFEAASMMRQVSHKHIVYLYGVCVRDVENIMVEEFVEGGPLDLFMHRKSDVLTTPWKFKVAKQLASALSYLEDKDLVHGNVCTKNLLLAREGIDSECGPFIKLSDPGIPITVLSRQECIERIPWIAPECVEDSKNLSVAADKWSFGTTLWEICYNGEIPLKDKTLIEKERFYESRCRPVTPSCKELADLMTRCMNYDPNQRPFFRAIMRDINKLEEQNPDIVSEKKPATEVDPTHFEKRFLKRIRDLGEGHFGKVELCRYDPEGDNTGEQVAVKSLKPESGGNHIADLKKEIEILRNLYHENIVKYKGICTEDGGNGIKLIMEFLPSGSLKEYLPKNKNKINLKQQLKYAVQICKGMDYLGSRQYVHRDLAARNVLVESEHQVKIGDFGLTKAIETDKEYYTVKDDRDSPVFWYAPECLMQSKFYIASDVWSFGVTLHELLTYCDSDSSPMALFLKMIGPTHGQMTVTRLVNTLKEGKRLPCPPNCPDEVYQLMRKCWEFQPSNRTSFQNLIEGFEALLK
T2 sequence (O60674 whole entry): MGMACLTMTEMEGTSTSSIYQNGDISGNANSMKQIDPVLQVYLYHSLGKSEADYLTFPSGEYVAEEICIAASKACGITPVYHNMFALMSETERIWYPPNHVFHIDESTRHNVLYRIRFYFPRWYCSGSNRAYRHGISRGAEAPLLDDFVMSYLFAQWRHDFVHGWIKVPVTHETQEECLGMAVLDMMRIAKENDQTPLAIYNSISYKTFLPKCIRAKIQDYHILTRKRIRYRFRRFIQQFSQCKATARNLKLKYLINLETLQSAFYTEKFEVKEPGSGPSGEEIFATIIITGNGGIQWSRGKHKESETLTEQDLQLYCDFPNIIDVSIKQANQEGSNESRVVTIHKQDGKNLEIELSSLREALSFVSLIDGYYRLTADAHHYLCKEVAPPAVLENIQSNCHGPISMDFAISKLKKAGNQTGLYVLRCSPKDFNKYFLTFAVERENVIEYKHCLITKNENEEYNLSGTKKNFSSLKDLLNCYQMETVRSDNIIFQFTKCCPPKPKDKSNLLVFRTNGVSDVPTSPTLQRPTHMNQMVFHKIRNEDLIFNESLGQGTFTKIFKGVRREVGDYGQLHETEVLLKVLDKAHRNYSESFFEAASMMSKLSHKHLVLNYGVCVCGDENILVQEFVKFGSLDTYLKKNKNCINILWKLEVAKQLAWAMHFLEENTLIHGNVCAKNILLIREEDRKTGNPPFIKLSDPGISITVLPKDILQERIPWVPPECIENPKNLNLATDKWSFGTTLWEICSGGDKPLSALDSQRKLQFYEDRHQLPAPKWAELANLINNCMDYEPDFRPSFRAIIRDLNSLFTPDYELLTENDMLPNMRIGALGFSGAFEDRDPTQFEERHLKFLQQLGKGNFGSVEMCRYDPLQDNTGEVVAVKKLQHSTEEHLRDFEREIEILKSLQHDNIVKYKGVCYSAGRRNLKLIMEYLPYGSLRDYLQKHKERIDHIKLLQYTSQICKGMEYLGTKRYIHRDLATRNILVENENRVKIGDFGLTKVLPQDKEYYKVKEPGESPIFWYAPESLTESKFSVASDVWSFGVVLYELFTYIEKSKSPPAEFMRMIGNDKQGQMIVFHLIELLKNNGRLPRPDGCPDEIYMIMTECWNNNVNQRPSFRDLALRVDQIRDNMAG
T4 sequence (P29597 whole entry): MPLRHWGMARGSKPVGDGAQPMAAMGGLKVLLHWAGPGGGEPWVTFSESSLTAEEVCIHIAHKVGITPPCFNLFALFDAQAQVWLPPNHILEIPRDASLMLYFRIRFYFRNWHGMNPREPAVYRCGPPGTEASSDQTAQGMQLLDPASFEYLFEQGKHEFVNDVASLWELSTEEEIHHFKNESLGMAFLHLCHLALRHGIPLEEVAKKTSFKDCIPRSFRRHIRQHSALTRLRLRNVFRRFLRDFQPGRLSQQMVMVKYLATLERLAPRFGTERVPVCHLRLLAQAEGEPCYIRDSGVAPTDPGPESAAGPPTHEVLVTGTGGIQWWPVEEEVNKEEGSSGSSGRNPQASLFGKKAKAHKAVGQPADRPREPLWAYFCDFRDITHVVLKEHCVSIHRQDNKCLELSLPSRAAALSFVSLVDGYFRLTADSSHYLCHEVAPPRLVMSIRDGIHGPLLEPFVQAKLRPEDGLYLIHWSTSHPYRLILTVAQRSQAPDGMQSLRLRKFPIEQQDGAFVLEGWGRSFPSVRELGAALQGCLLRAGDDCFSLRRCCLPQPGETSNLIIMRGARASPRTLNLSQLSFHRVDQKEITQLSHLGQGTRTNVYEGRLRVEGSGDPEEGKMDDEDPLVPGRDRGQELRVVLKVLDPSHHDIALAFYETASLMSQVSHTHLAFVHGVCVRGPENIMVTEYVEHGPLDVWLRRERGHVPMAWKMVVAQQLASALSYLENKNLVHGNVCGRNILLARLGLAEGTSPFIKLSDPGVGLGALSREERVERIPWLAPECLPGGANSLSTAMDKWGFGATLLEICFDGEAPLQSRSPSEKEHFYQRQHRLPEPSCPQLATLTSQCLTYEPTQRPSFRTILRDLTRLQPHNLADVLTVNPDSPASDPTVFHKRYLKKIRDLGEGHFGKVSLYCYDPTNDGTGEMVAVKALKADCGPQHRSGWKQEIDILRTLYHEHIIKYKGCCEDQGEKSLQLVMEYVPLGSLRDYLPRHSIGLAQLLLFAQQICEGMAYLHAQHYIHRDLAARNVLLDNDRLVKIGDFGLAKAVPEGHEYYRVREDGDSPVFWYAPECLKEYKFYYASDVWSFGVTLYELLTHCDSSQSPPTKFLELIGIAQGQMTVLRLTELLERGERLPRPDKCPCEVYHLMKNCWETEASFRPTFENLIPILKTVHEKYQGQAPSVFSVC

In the case of `CC(C)[C@H](C)n1cc(-c2cc(N3CCCCC3=O)n(C)n2)c2[nH]nc(N)c2c1=O` [Example 48, 3-amino-5-((2S)-3-methylbutan-2-yl)-7-(1-methyl-5-(2-oxopiperidin-1-yl)-1H-pyrazol-3-yl)-1,5-dihydro-4H-pyrazolo[4,3-c]pyridin-4-one], the inhibition at 1 µM in experiment [1] worked out at 94%; in experiment [2] it was 97%; in experiment [3] it was 100%; in experiment [4], 99%.

In the case of `COC[C@@H]1CCCN1c1cc(-c2cn([C@@H](C)C(C)C)c(=O)c3c(N)n[nH]c23)nn1C` [Example 26, 3-amino-7-(5-((2S)-2-(methoxymethyl)pyrrolidin-1-yl)-1-methyl-1H-pyrazol-3-yl)-5-((2S)-3-methylbutan-2-yl)-1,5-dihydro-4H-pyrazolo[4,3-c]pyridin-4-one], the inhibition at 1 µM worked out at 88% in experiment [1], 96% in experiment [2], 98% in experiment [3] and 98% in experiment [4].

Consider `CC(C)[C@H](C)n1cc(-c2cc(C(=O)N(C)C3CCCC3)n(C)n2)c2[nH]nc(N)c2c1=O` [Example 50, 3-(3-amino-5-((2S)-3-methylbutan-2-yl)-4-oxo-4,5-dihydro-1H-pyrazolo[4,3-c]pyridin-7-yl)-N-cyclopentyl-N,1-dimethyl-1H-pyrazole-5-carboxamide], for which the inhibition at 1 µM in experiment [1] was found to be 96%; in experiment [2], 99%; in experiment [3] it was 100%; in experiment [4], 99%.

On to `CC1CCCCC1n1cc(-c2cc(N3CCOCC3)n(C)n2)c2[nH]nc(N)c2c1=O` (centres unmarked) [Example 153, 3-amino-5-(2-methylcyclohexyl)-7-(1-methyl-5-(morpholin-4-yl)-1H-pyrazol-3-yl)-1,5-dihydro-4H-pyrazolo[4,3-c]pyridin-4-one], for which, in experiment [1], the “JAK1 enzyme inhibitory activity (%, 1 μM)” value came out at 99%. Moreover, the “JAK2 enzyme inhibitory activity (%, 1 μM)” value in experiment [2] is 98%. Besides, the “JAK3 enzyme inhibitory activity (%, 1 μM)” value in experiment [3] was 101%. In addition, the “TYK2 enzyme inhibitory activity (%, 1 μM)” value in experiment [4] is 103%.

Consider `CC(C)C(C(F)F)n1cc(-c2cc(N3CCOCC3)n(C)n2)c2[nH]nc(N)c2c1=O` (centres unmarked) [Example 80, 3-amino-5-(1,1-difluoro-3-methylbutan-2-yl)-7-(1-methyl-5-(morpholin-4-yl)-1H-pyrazol-3-yl)-1,5-dihydro-4H-pyrazolo[4,3-c]pyridin-4-one], for which the inhibition at 1 µM amounted to 89% in experiment [1], 91% in experiment [2], 98% in experiment [3] and 99% in experiment [4].

Consider `Cn1nc(-c2cn(C(C3CC3)C3CC3)c(=O)c3c(N)n[nH]c23)cc1C(F)(F)F` [Example 165, 3-amino-5-(dicyclopropylmethyl)-7-(1-methyl-5-(trifluoromethyl)-1H-pyrazol-3-yl)-1,5-dihydro-4H-pyrazolo[4,3-c]pyridin-4-one], for which the inhibition at 1 µM in experiment [1] was found to be 100%; in experiment [2], 98%; in experiment [3], 100%; in experiment [4], 100%.

Regarding `Cn1nc(-c2cn(C3CCCC3(C)C)c(=O)c3c(N)n[nH]c23)cc1N1CCOCC1` (centres unmarked) [Example 77, 3-amino-5-(2,2-dimethylcyclopentyl)-7-(1-methyl-5-(morpholin-4-yl)-1H-pyrazol-3-yl)-1,5-dihydro-4H-pyrazolo[4,3-c]pyridin-4-one], the “JAK1 enzyme inhibitory activity (%, 1 μM)” value in experiment [1] stood at 79%. In addition, the “JAK2 enzyme inhibitory activity (%, 1 μM)” value in experiment [2] turned out to be 84%. Further, in experiment [3], the “JAK3 enzyme inhibitory activity (%, 1 μM)” value is 90%. The “TYK2 enzyme inhibitory activity (%, 1 μM)” value in experiment [4] is listed as 96%.

Turning to `CC(C)[C@H](C)n1cc(-c2cc(C3(O)CCOCC3)n(C)n2)c2[nH]nc(N)c2c1=O` [Example 35, 3-amino-7-(5-(4-hydroxytetrahydro-2H-pyran-4-yl)-1-methyl-1H-pyrazol-3-yl)-5-((2S)-3-methylbutan-2-yl)-1,5-dihydro-4H-pyrazolo[4,3-c]pyridin-4-one], the inhibition at 1 µM was found to be 97% in experiment [1], 99% in experiment [2], 100% in experiment [3] and 99% in experiment [4].

Turning to `CC(C)[C@H](C)n1cc(-c2cc(N3CCN(S(=O)(=O)C(C)C)CC3)n(C)n2)c2[nH]nc(N)c2c1=O` [Example 102, 3-amino-7-(5-(4-(isopropylsulfonyl)piperazin-1-yl)-1-methyl-1H-pyrazol-3-yl)-5-((2S)-3-methylbutan-2-yl)-1,5-dihydro-4H-pyrazolo[4,3-c]pyridin-4-one], the inhibition at 1 µM in experiment [1] is 97%; in experiment [2], 98%; in experiment [3] it was 99%; in experiment [4] it was 100%.

`C[C@@H](C1CC1)n1cc(-c2cc(N3CCS(=O)(=O)C(C)(C)C3)n(C)n2)c2[nH]nc(N)c2c1=O` [Example 95, 3-amino-5-((1S)-1-cyclopropylethyl)-7-(5-(2,2-dimethyl-1,1-dioxidothiomorpholin-4-yl)-1-methyl-1H-pyrazol-3-yl)-1,5-dihydro-4H-pyrazolo[4,3-c]pyridin-4-one]: the inhibition at 1 µM in experiment [1] was 100%; in experiment [2], 100%; in experiment [3], 100%; in experiment [4] it was 99%.

`CCOC(=O)C(C(C)C)n1cc(-c2cc(N3CCOCC3)n(C)n2)c2[nH]nc(N)c2c1=O` (centres unmarked) [Example 84, ethyl 2-(3-amino-7-(1-methyl-5-(morpholin-4-yl)-1H-pyrazol-3-yl)-4-oxo-1,4-dihydro-5H-pyrazolo[4,3-c]pyridin-5-yl)-3-methylbutanoate]: the inhibition at 1 µM stood at 84% in experiment [1], 87% in experiment [2], 97% in experiment [3] and 83% in experiment [4].

Regarding `CC(C)[C@H](C)n1cc(-c2cc(C(C)(C)C(=O)N(C)C)n(C)n2)c2[nH]nc(N)c2c1=O` [Example 56, 2-(3-(3-amino-5-((2S)-3-methylbutan-2-yl)-4-oxo-4,5-dihydro-1H-pyrazolo[4,3-c]pyridin-7-yl)-1-methyl-1H-pyrazol-5-yl)-N,N,2-trimethylpropanamide], the inhibition at 1 µM in experiment [1] amounted to 70%; in experiment [2], 94%; in experiment [3], 94%; in experiment [4], 98%.

In the case of `Cn1nc(-c2cn(-c3c(F)cccc3C#N)c(=O)c3c(N)n[nH]c23)cc1C1=CCOCC1` [Example 68, 2-(3-amino-7-(5-(3,6-dihydro-2H-pyran-4-yl)-1-methyl-1H-pyrazol-3-yl)-4-oxo-1,4-dihydro-5H-pyrazolo[4,3-c]pyridin-5-yl)-3-fluorobenzonitrile], the inhibition at 1 µM in experiment [1] was 99%; in experiment [2], 97%; in experiment [3], 99%; in experiment [4] it was 99%.

On to `Cn1nc(-c2cn(-c3c(F)cccc3F)c(=O)c3c(N)n[nH]c23)cc1N1CCC[C@@H]1CC#N` [Example 142, ((2R)-1-(3-(3-amino-5-(2,6-difluorophenyl)-4-oxo-4,5-dihydro-1H-pyrazolo[4,3-c]pyridin-7-yl)-1-methyl-1H-pyrazol-5-yl)pyrrolidin-2-yl)acetonitrile], for which the inhibition at 1 µM in experiment [1] worked out at 98%; in experiment [2], 98%; in experiment [3], 99%; in experiment [4], 98%.

The record behind these values is patent US9637483B2, “Heterocyclic compound” (TAKEDA PHARMACEUTICAL COMPANY LIMITED, priority 2013, dated 2017).
